Experiments:
[1] = tested on: elderly patients with systolic hypertension; assay: Group I: double-blind randomised crossover study of single doses in patients with systolic hypertension, no baseline angiotensin II inhibition; details: for Sitting brachial blood pressure systolic: at 11.00 h after single dose at 08.00 h (ISMN 60 mg, captopril 25 mg, eprosartan 600 mg), placebo 173 ± 3; for Sitting brachial blood pressure systolic / Heart rate (sitting) / Sitting brachial blood pressure diastolic / Standing brachial blood pressure diastolic / Standing brachial blood pressure systolic / decrease in P1 (aortic first peak pressure) at nadir / decrease in P2 (augmentation pressure) at nadir: mean ± SEM; for Heart rate (sitting) / Sitting brachial blood pressure diastolic / Standing brachial blood pressure diastolic / Standing brachial blood pressure systolic: at 11.00 h after single dose at 08.00 h; for Heart rate (sitting): placebo 60 ± 4; for Sitting brachial blood pressure diastolic: placebo 82 ± 3; for Standing brachial blood pressure diastolic: placebo 83 ± 3; for Standing brachial blood pressure systolic: placebo 166 ± 4; for effect on augmentation index: post-dose observation period; for effect on aortic systolic blood pressure: ISMN and captopril P<0.0001, eprosartan P<0.001; for aortic systolic pressure lower than control at nadir of hypotensive effect: nadir ISMN 10.00 h, captopril 11.00 h, eprosartan 09.00 h
Text: The subjects were sixteen patients with long-standing hypertension, referred from their family physicians after having undergone treatment trials using a variety of conventional antihypertensive agents without reaching satisfactory control of systolic blood pressure. […] Plasma creatinine concentration was <0.15 mmol/l in every case. There was a history of myocardial infarction Or coronary bypass grafting in eight subjects, of peripheral vascular disease in four, and of diabetes mellitus (not requiring medication) in one. All patients were fully ambulant without symptomatic cardiac disease or known vascular aneurysm. Their current regimen of antihypertensive therapy had been stable for three weeks or more, and was continued unchanged through the present study. None had received nitrate therapy previously. Two different study protocols were used. One patient participated in both protocols with a 15-month break in between. Entry to either study required that systolic blood pressure should be between 150 and 200 mmHg, and that diastolic blood pressure should be equal to or less than 100 mmHg.
Group I protocol. […] Their baseline anti-hypertensive therapy, which excluded ACE inhibitors and angiotensin II receptor antagonists, consisted of one to three of the following drugs in conventional dosage:. diuretics (7 cases), beta blockers (7), prazosin (1), amlodipine (4), nifedipine controlled-release formulation (2). […] The pulse wave and pulse rate were measured at the same intervals. Between observations, the subjects engaged in sedentary recreational activities in a temperature-controlled environment.
Brachial blood pressure was recorded by sphygmomanometer, and pulse wave tonometry was performed at the radial artery with the patient seated. The aortic pulse wave form was determined and the aortic first peak pressure (P1) and augmentation pressure (P2) were quantified by computer software (SphygmoCor, AtCor Medical, Sydney), as previously reported.^13 Augmentation index (P2 expressed as % of pulse pressure) described the magnitude of wave reflection. Statistical analysis was by repeated measures analysis of variance using PRISM (GraphPad Software Inc., San Diego, Calif.) and post-hoc paired t tests. Values given are mean±SEM.

[2] = tested on: elderly patients with systolic hypertension on chronic angiotensin II inhibitors; assay: Group II: double-blind randomised crossover study of single-dose ISMN in patients with AII inhibition at baseline; format: in vivo, human; details: for decrease in sitting diastolic pressure: not significant
Protocol: None had received nitrate therapy previously. Two different study protocols were used. […] Group II protocol. […] The two study days were one to two weeks apart. Observations were made from 0800 h to 1600 h as in Group I. These subjects differed from Group I in that they were receiving treatment at study entry with ACE inhibitor or angiotensin II receptor antagonist drugs, as follows: monopril 10 mg/d (1 case), captopril 50 mg/d (1), ramipril 10 mg/day (1), ramipril 10 mg/d and candesartan 16 mg/d (1), irbesartan 300 mg/d (1), telmisartan 40 mg/d (1). Their other baseline antihypertensive drug therapy consisted of 1-2 of the following agents in conventional dosage: hydrochlorthiazide (1), beta blockers (2), amlodipine (1), diltiazem controlled-delivery formulation (2). […] Values given are mean±SEM.

[3] = reported in literature (refs 15-17); cited from earlier work

SMILES | Sitting brachial blood pressure systolic ([1]; Group I) [mm Hg] | Heart rate (sitting) ([1]; Group I) [bpm] | Sitting brachial blood pressure diastolic ([1]; Group I) [mm Hg] | Standing brachial blood pressure diastolic ([1]; Group I) [mm Hg] | Standing brachial blood pressure systolic ([1]; Group I) [mm Hg] | effect on augmentation index ([1]; Group I) | effect on aortic systolic blood pressure ([1]; Group I, single dose) | decrease in P1 (aortic first peak pressure) at nadir ([1]; Group I, single dose) [mmHg] | decrease in P2 (augmentation pressure) at nadir ([1]; Group I, single dose) [mm Hg] | aortic systolic pressure lower than control at nadir of hypotensive effect ([1]; Group I, single dose) [mm Hg] | time to reach peak plasma concentration [3] [h] | effect on heart rate ([1]; Group I, single dose) | also measured
O=[N+]([O-])O[C@@H]1CO[C@H]2[C@@H]1OC[C@@H]2O [ISMN, isosorbide mononitrate] | 145 ± 5 | 60 ± 5 | 77 ± 3 | 77 ± 3 | 139 ± 4 | significantly reduced | significantly decreased | 11±2 | 19±3 | 34 | 3 to 4 | – | peak decrease in augmentation index ([1]; FIGS. 1 and 2 (Groups I and II)): approximately 50 % of control; average post-dose decrease in augmentation index ([1]; Group I, ISMN 60 mg single dose, control 37.9±1.0%): 15±1%; average post-dose decrease in aortic systolic pressure ([1]; Group I, ISMN 60 mg single dose, control 160±2): 29±2 mmHg; Heart rate average post-dose increase ([1]; Group I, single dose, P<0.001): 3±1 b.p.m.; duration of depressor effect ([1]; extended-release preparation, observation to 16.00 h): sustained through the remainder of the observation period; average post-dose decrease in augmentation index ([2]; Group II (baseline AII inhibition), ISMN 60 mg single dose, control 38.5±1.1%): 16±1%; average post-dose decrease in aortic systolic pressure ([2]; Group II (baseline AII inhibition), ISMN 60 mg single dose, control 154±2): 34±3 mmHg; effect on sitting and standing brachial systolic blood pressure ([2]; Group II, P<0.0001): decreased; decrease in sitting brachial systolic blood pressure ([2]; Group II, at 12.00 h, from control value 176, P<0.001): 37 mm Hg; decrease in sitting diastolic pressure ([2]; Group II, at 12.00 h): 13 mm Hg; decrease in sitting brachial systolic blood pressure ([2]; Group II, at 16.00 h, from control value 173, P<0.001): 34 mm Hg; decrease in sitting diastolic pressure ([2]; Group II, at 16.00 h): 10 mm Hg; Heart rate, overall mean value ([2]; Group II, increased from mean value of 60, P<0.001): 64 bpm
CCCCc1ncc(/C=C(\Cc2cccs2)C(=O)O)n1Cc1ccc(C(=O)O)cc1 [Eprosartan, eprosartan] | 158 ± 5 | 59 ± 4 | 78 ± 3 | 83 ± 4 | 152 ± 4 | Neither captopril nor eprosartan altered | significantly decreased | 4±2 | 6±3 | 15 | 1 to 2 | not changed | –
C[C@H](CS)C(=O)N1CCC[C@H]1C(=O)O [Captopril, captopril] | 148 ± 5 | 59 ± 4 | 78 ± 2 | 78 ± 2 | 143 ± 5 | Neither captopril nor eprosartan altered | significantly decreased | 9±2 | 9±3 | 23 | 1 | not changed | –

Source: patent US20070009614A1, “Composition and method for treating hypertension” (Northern Sydney Area Health Service, priority 2002, published 2007)
